Results: the Deep4Chem optical property database
One block for each compound: values may come before it.

Experiment: solvent given as SMILES
[1] = in c1cc(-c2cccc(-n3c4ccccc4c4ccccc43)c2)cc(-n2c3ccccc3c3ccccc32)c1

SMILES: COc1ccc2c3c(cccc13)C(=O)c1ccccc1-2
fluorescence lifetime (in CC#N): 13.2 ns
fluorescence lifetime (in CC(C)=O): 10.5 ns
fluorescence lifetime (in CC(C)O): 12.7 ns
fluorescence lifetime (in CCCCOCCCC): 0.6 ns
fluorescence lifetime (in CCOC(C)=O): 4.1 ns
fluorescence lifetime (in CCOCC): 0.9 ns
fluorescence lifetime (in CO): 12.6 ns
fluorescence lifetime (in Cc1ccccc1): 1.4 ns
fluorescence lifetime (in Clc1ccccc1): 6 ns
fluorescence lifetime (in N#Cc1ccccc1): 14.1 ns
fluorescence lifetime (in O=C1CCCCC1): 7.8 ns

fluorescence lifetime (in C1COCCO1): 0.25 ns
fluorescence lifetime (in CC#N): 0.57 ns
SMILES: C(/C=C/c1cc2c3c(c1)CCCN3CCC2)=C\c1ccncc1

SMILES: O=C1c2ccccc2C(=O)c2cc(-c3ccc(N(c4ccccc4)c4ccccc4)cc3)ccc21
fluorescence lifetime (in CCCCCC): 5.51 ns
fluorescence lifetime (in CCOC(C)=O): 0.15 ns
fluorescence lifetime (in CCOCC): 2.81 ns
fluorescence lifetime (in Cc1ccccc1): 6.79 ns
fluorescence lifetime (in ClC(Cl)(Cl)Cl): 8.82 ns

fluorescence lifetime (in ClCCl): 4.89 ns
SMILES: F[B-]1(F)n2c(cc3c4ccccc4c4ccccc4c32)-c2ccc3ccccc3[n+]21

SMILES: CCCCC(CC)CN1C(=O)c2cc(Oc3ccc(OC)cc3)c3c4c(Cl)cc5c6c(cc(Cl)c(c7c(Oc8ccc(OC)cc8)cc(c2c37)C1=O)c64)C(=O)N(c1c(C(C)C)cccc1C(C)C)C5=O (configuration not stated)
fluorescence lifetime (in Cc1ccccc1): 0.56 ns

SMILES: CCCCOC(=O)c1cc(Oc2ccc(C(C)(C)C)cc2)c2c3c(Cl)cc4c5c(cc(Cl)c(c6c(Oc7ccc(C(C)(C)C)cc7)cc(C(=O)OCCCC)c1c26)c53)C(=O)N(c1c(C(C)C)cccc1C(C)C)C4=O
fluorescence lifetime (in Cc1ccccc1): 6.42 ns

SMILES: Cc1ccc2ccccc2c1
fluorescence lifetime (in C1CCCCC1): 114 ns

fluorescence lifetime (in ClC(Cl)Cl): 2.4 ns
SMILES: COc1ccc2cc(-c3ccccc3CC#N)c(=O)oc2c1

fluorescence lifetime (in C1CCOC1): 2.8 ns
SMILES: FC(F)(F)C(F)(F)C(F)(F)C1=NC2=C(Oc3ccccc3)C=C3c4cc(Oc5ccccc5)c5nc(C(F)(F)C(F)(F)C(F)(F)F)nc6c(Oc7ccccc7)cc(c4c56)=C4C=C(Oc5ccccc5)C(=N1)C2C34 (configuration not stated)

fluorescence lifetime [1]: 58 ns
SMILES: CC1(C)c2ccccc2N(c2ccc3c(c2)c2cc(N4c5ccccc5C(C)(C)c5ccccc54)ccc2c2nc4ccccc4nc32)c2ccccc21

fluorescence lifetime (in ClCCl): 3.8 ns
SMILES: COc1ccc(C2=Cc3cc4ccccc4cc3P2(=O)c2ccccc2)cc1 (configuration not stated)

SMILES: CCOC(=O)CN1C(=O)C2=C(c3ccc(N4CCCCC4)cc3)N(CC(=O)OCC)C(=O)C2=C1c1ccccc1
fluorescence lifetime (in CC#N): 2.7 ns
fluorescence lifetime (in CS(C)=O): 6.7 ns
fluorescence lifetime (in Cc1ccccc1): 4 ns

SMILES: CCCCCCN(CCCCCC)c1ccc(C#Cc2ccc(C#Cc3ccc(-c4ccc(C#Cc5ccc(C#Cc6ccc(N(CCCCCC)CCCCCC)cc6)cc5)cc4)cc3)cc2)cc1
fluorescence lifetime (in Cc1ccccc1): 0.8 ns

fluorescence lifetime [1]: 5.47 ns
fluorescence lifetime (in c1cc(-n2c3ccccc3c3ccccc32)cc(-n2c3ccccc3c3ccccc32)c1): 5.47 ns
SMILES: O=c1c2ccccc2n2c3ccccc3c(=O)c3cc(-c4ccccc4)cc1c32

SMILES: Cc1nc2c(c[n+]1C)CN1C(=O)N([C@H]3O[C@@H](CO)[C@H](O)[C@@H]3O)C=CC1=N2
fluorescence lifetime (in CC#N): 3.61 ns
fluorescence lifetime (in CC(C)=O): 3.12 ns
fluorescence lifetime (in CCCO): 0.39 ns
fluorescence lifetime (in CCO): 0.47 ns
fluorescence lifetime (in CO): 0.55 ns
fluorescence lifetime (in O): 1.58 ns
fluorescence lifetime (in [2H]OC): 0.58 ns
fluorescence lifetime (in [2H]OCC): 0.5 ns
fluorescence lifetime (in [2H]O[2H]): 1.86 ns

fluorescence lifetime (in ClCCl): 6.4 ns
SMILES: F[B-]1(F)n2c(c3cccc4cccc2c43)=Nc2cccc(Cl)[n+]21

fluorescence lifetime (in C1CCCCC1): 0.34 ns
fluorescence lifetime (in CC#N): 0.196 ns
fluorescence lifetime (in CCO): 0.253 ns
fluorescence lifetime (in CCOC(C)=O): 0.237 ns
fluorescence lifetime (in CO): 0.197 ns
fluorescence lifetime (in OCC(F)(F)F): 0.323 ns
SMILES: Cc1ccc(C2=C3C=CC=[N+]3[B-](F)(F)n3cccc32)cc1

SMILES: c1ccc2nc3cccc(-c4ccc(-n5c6ccccc6c6ccccc65)cc4)c3cc2c1
fluorescence lifetime (in CC#N): 10.6 ns
fluorescence lifetime (in CCCCCC): 0.2 ns
fluorescence lifetime (in CCOCC): 0.2 ns
fluorescence lifetime (in ClCCl): 6.68 ns

SMILES: CCN(CC)c1cccc(C=O)c1
fluorescence lifetime (in CC#N): 11.7 ns
fluorescence lifetime (in CC(C)O): 1.47 ns
fluorescence lifetime (in CCCCCC): 5.95 ns
fluorescence lifetime (in CCOC(C)=O): 14.3 ns
fluorescence lifetime (in CS(C)=O): 21.9 ns
fluorescence lifetime (in Cc1ccccc1): 16.2 ns
fluorescence lifetime (in ClCCl): 26.6 ns

fluorescence lifetime (in C1CCCCC1): 56 ns
SMILES: CC(C)(C)[Si](C)(C)c1cccc2ccccc12

fluorescence lifetime (in CO): 5.7 ns
SMILES: CC1=CC(C)=[N+]2C1=Cc1ccc(CCC(=O)ON3C(=O)CCC3=O)n1[B-]2(F)F

SMILES: O=C(c1ccc(-n2c3ccccc3c3cc(-n4c5ccccc5c5ccccc54)ccc32)cc1)c1ccc(-n2c3ccccc3c3cc(-n4c5ccccc5c5ccccc54)ccc32)cn1
fluorescence lifetime (in O=P(c1ccccc1)(c1ccccc1)c1ccccc1Oc1ccccc1P(=O)(c1ccccc1)c1ccccc1): 62 ns
